US8039634B2, “Oxazole hydroxamic acid derivatives and use thereof” (SK Holdings Co., Ltd., priority 2005, dated 2011)
Values after ≈ are worked out from the molar mass of the structure shown. Read-outs that look alike come from different tables or passages of the source.

Tests used:
HDAC = experiment: Inhibition of HDAC activity (fluorometric, HeLa nuclear extract); format: biochemical, human; conditions: 30 min room temperature
Experimental: In order to determine inhibitory activity of a compound in accordance with the present invention on HDAC, evaluation was carried out using an aminocoumarin derivative of ω-acetylated lysine as a substrate for an enzyme. As an enzyme source, a nuclear extract obtained from human cervical cancer cell line HeLa cells was used. The above evaluation was carried out with modification of a method based on the details described in Weegener et al. (2003) Analytical Biochemistry, 321, 203-208. That is, […], […] of nuclear extract and a compound of Example 1 at different concentrations were added and maintained at room temperature for 30 min. Trypsin (10 mg/ml) and Trichostatin A (final concentration: […]) were added to the resulting mixture which was reacted at the same temperature for 20 min, thereby terminating the reaction. The enzyme activity-inhibitory concentration of the compound added was determined using a fluorometer. As a control compound, suberoylanilide hydroxamic acid (SAHA) was used. IC50 in Table 1 below refers to a concentration of the compound that leads to a 50% decrease in activity of HDAC.

HeLa = experiment: In vitro toxicity / growth inhibition (CellTiter-Glo), HeLa; format: cell-based; conditions: Homo sapiens, 48 hr
Experimental: (§1) In order to determine in vitro toxicity of a compound in accordance with the present invention, 18 species of human cancer cell lines (HeLa, cervical cancer cell line; HCT116, SW480, SW620, RKO, colon cancer cell lines; H460, H1299, A549, lung cancer cell lines; MCF7, MDA-MB231, MDA-MB453, breast cancer cell lines; Jurkat, K562, THP1, Ramos, U937, blood cancer cell lines; PC3, DU145, prostate cancer cell lines) were used. Cell lines were cultured in RPMI 1640 culture medium containing penicillin/streptomycin (100 units/mL) and heat-inactivated 5% fetal bovine serum (FBS) under standard culture conditions ([…], 5% CO2, and 100% relative humidity). Thereafter, single cell suspension was obtained via trypsin treatment and pipetting. The suspension was diluted with the same medium such that a cell density is in a range of 8×10^3 to 1.5×10^4 cells/well, and was transferred to a 96-well microtiter plate. After culturing for 24 hours, cell cultures were treated with respective compounds of Examples at various concentrations. […] The above evaluation was carried out according to the methods given in a manufacture's manual. GI50 in Table 1 below refers to a concentration that compounds of Examples cause 50% growth inhibition of various cancer cells.

HCT116 = experiment: In vitro toxicity / growth inhibition (CellTiter-Glo), HCT116; format: cell-based; conditions: Homo sapiens, HCT-116; HCT116, 48 hr
Experimental: as §1

H460 = experiment: In vitro toxicity / growth inhibition (CellTiter-Glo), H460; format: cell-based; conditions: Homo sapiens, NCI-H460; H460, 48 hr
Experimental: as §1

MCF7 = experiment: In vitro toxicity / growth inhibition (CellTiter-Glo), MCF7; format: cell-based; conditions: Homo sapiens; MCF7, 48 hr
Experimental: as §1

Solubility = format: physicochemical
Histone Deacetylase = experiment: Histone H3/H4 acetylation in HCT116 cells (Western blot); format: cell-based, human; conditions: 1 μM, HCT116, 0, 2 and 5 hours
Experimental: Human color cancer cell line (HCT116) was cultured in RPMI 1640 culture medium containing penicillin/streptomycin (100 units/mL) and heat-inactivated 5% fetal bovine serum (FBS) under standard culture conditions ([…], 5% CO2, 37° C., and 100% relative humidity). Test compounds were dissolved in dimethylsulfoxide (DMSO) and were used as a final concentration of 1 μM. Cells (3×10^7) were cultured in the presence of the test compound (1 μM, Example 1) and absence thereof for 0, 2 and 5 hours, respectively. The cell suspension, which was obtained via trypsin treatment and pipetting, was centrifuged at 200×g for 10 min to form a pellet. The thus-formed pellet was washed twice with 10-fold volume of saline and re-suspended in a buffer [[…], pH 7.9, 1.5 mM MgCl2, 10 mM KCl, 0.5 mM DTT, 1.5 mM PMSF]. Thereafter, hydrochloric acid was added in a final concentration of 0.2 M to the resulting suspension which was then stored on ice for 30 min. The final suspension was centrifuged at 11,000 rpm and 4° C. for 10 min. […]
Dialyzed proteins were subjected to gel electrophoresis using 16% protein gel and were probed with acetylated histone H3 (Ac-H3) or H4 (Ac-H4) antibodies (Upstate Biotechnology Inc). […] In order to compare the equal amount of proteins, protein quantification and protein gel were run in parallel, followed by coumassie blue staining.

ICR-BG mice = conditions: mouse, in vivo
Experimental: In order to confirm acute toxicity in vivo, a Rotarod Neurotoxicity test was carried out on ICR-BG mice (N=8). Animals were administered at a dose of 300 mg/kg. Animals received training at 7 rpm for 10 min twice, and 1 hour later the compound of Example 1 was administered intraperitoneally (ip) to 8 mice. Thereafter, for one minute at the intervals of every 30 min, 1 hour, 2 hours and 4 hours, times that animals fell from the rotarod and death of animal post-drug administration or affliction-related responses were continuously observed. When mice fell from the rotarod more than thrice in one minute, it was regarded as fall off.

Raw cell = experiment: Inhibition of LPS-induced NO increases; format: cell-based, Mouse; conditions: 5 μM compound
Experimental: As one of the methods to confirm anti-inflammatory responses, inhibition of increases in nitric oxide (NO) due to lipopolysaccharide (LPS) was carried out. Mouse cell line (Raw cell) was cultured in RPMI 1640 culture medium containing penicillin/streptomycin (100 units/mL) and heat-inactivated 5% fetal bovine serum (FBS) under standard culture conditions ([…], 5% CO2, 37° C., and 100% relative humidity). Test compounds were dissolved in dimethylsulfoxide (DMSO) and were used as a final concentration of 1 to 40 μM. Cells were proliferated to a cell density of 5×10^3 to 2×10^4 cells on a 24-well plate and were treated with the respective compounds (equal amounts of 5 μM) 1 hour prior to treatment with LPS ([…]). The thus-treated cells were cultured for 18 hours, and thereafter the amounts of NO thus produced were measured using Griess Reagent. Measurement was confirmed using an absorption spectrophotometer at 540 nm. The value was expressed as percentage (%) relative to a control in which LPS alone was treated.

Question: What does the source list for `COc1ccc(-c2oc(CCCCCCC(=O)NO)nc2-c2ccccc2)cc1` [Example 1, 7-(5-(4-methoxyphenyl)-4-phenyloxazol-2-yl)heptanoic acid hydroxyamide]?
Answer: IC50 (HDAC): 1.07 nM; GI50 (HeLa): 1400 nM; GI50 (HCT116): 3000 nM; GI50 (H460): 3630 nM; GI50 (MCF7): 700 nM; solubility (Solubility): 200 µg/mL (≈ 507 µM); Acetylation of histone H3 (Ac-H3) and H4 (Ac-H4) (Histone Deacetylase): acetylated over time was confirmed via Western blot analysis; Mice fallen off rotarod (ICR-BG mice; 0.5 h): 1/8(Fallen off); Mice fallen off rotarod (ICR-BG mice; 1 h): 1/8; Mice fallen off rotarod (ICR-BG mice; 2 h): 0/8; Mice fallen off rotarod (ICR-BG mice; 4 h): 0/8; NO (Raw cell; LPS, 18 hours, Griess Reagent): 63.7 μM/L; activity at 5 µM (Raw cell; Mus musculus, 18 h, relative to LPS alone control): 57.9%
